This note sets out measurements from PubChem BioAssay AID330 (DTP/NCI, 2004).

“And” between values parts separate entries of the source, which are not always exact repeats. Identical values can stand only once. Inconclusive results and toxic doses are left out.

The assay relates to P388 leukemia ip, CD2F1 mice, survival T/C. The experiment in a line: NCI In Vivo Anticancer Drug Screen. Data for tumor model P388 Leukemia (intraperitoneal) in CD2F1 (CDF1) mice. To be noted: endpoint: median survival time, higher = longer survival. In a few lines: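 Mice carrying the transplanted tumor received test compound or vehicle. Survival was recorded in each group, and the value is the treated-group measurement divided by that of the vehicle-treated control group.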

The mark [1] stands for this setting: dose: 100.0 mg/kg/injection, schedule: Q01DX009 (ip), vehicle: saline.
The mark [2] stands for this setting: dose: 50.0 mg/kg/injection, schedule: Q01DX009 (ip), vehicle: Klucel (hydroxypropylcellulose) (HPC).
Setting [3] is: dose: 100.0 mg/kg/injection, schedule: Q01DX009 (ip), vehicle: Klucel (hydroxypropylcellulose) (HPC).
The mark [4] stands for this setting: dose: 200.0 mg/kg/injection, schedule: Q01DX009 (ip), vehicle: Klucel (hydroxypropylcellulose) (HPC).
Where [5] appears, read: dose: 50.0 mg/kg/injection, schedule: Q01DX005 (ip), vehicle: saline with Tween-80.
Where [6] appears, read: dose: 100.0 mg/kg/injection, schedule: Q01DX005 (ip), vehicle: saline with Tween-80.
Where [7] appears, read: dose: 200.0 mg/kg/injection, schedule: Q01DX005 (ip), vehicle: saline with Tween-80.

Consider `CCCCCCCC/C=C/CCCCCCCCCCCCBr`, for which the T/C under setting [1] was 90 % of control; the T/C (dose: 100.0 mg/kg/injection, schedule: Q04DX003 (ip), vehicle: saline) is 95 % of control; the T/C (dose: 200.0 mg/kg/injection, schedule: Q01DX009 (ip), vehicle: saline) is 104 % of control; the T/C (dose: 200.0 mg/kg/injection, schedule: Q04DX003 (ip), vehicle: saline) is 95 % of control; the T/C (dose: 400.0 mg/kg/injection, schedule: Q01DX009 (ip), vehicle: saline) is 100 % of control; the T/C (dose: 400.0 mg/kg/injection, schedule: Q04DX003 (ip), vehicle: saline) is 100 % of control.
On to `C=C1C(=O)OC2C=C(CCC(C)=O)C(C)C(OC(C)=O)CC12` (stereo not drawn), for which the T/C is, setting by setting: (dose: 25.0 mg/kg/injection, schedule: Q01DX009 (ip), vehicle: Klucel (hydroxypropylcellulose) (HPC)) 100 % of control; under setting [2], 102 % of control; under setting [3], 94 % of control; under setting [4], 94 % of control.
As to `Cc1nc2oc(=O)cc(C)c2c(=O)[nH]1`, the T/C by setting is: (dose: 60.0 mg/kg/injection, schedule: Q01DX005 (ip), vehicle: Klucel (hydroxypropylcellulose) (HPC)) 91 % of control; (dose: 120.0 mg/kg/injection, schedule: Q01DX005 (ip), vehicle: Klucel (hydroxypropylcellulose) (HPC)) 96 % of control.
Turning to `CC1(C)OC1(C(=O)C=[N+]=[N-])c1ccccc1` (stereo not drawn), the T/C was 96 % of control (dose: 25.0 mg/kg/injection, schedule: Q01DX005 (ip), vehicle: saline with Tween-80); 99 % of control under setting [5]; 96 % of control under setting [6]; 103 % of control under setting [7].
With `C[N+](C)([O-])c1ccc(C(=O)C2CCCCC2)cc1`, the T/C (dose: 100.0 mg/kg/injection, schedule: Q04DX002 (ip), vehicle: saline) was 101 % of control; the T/C (dose: 200.0 mg/kg/injection, schedule: Q04DX002 (ip), vehicle: saline) was 99 % of control; the T/C (dose: 400.0 mg/kg/injection, schedule: Q04DX002 (ip), vehicle: saline) was 103 % of control.
On to `CNC(=O)Oc1ccc2c(c1)[C@]1(C)CCN(C)O[C@@H]1N2C`, for which the T/C by setting is: (dose: 0.79 mg/kg/injection, schedule: Q01DX005 (ip), vehicle: Klucel (hydroxypropylcellulose) (HPC)) 100 % of control; (dose: 1.56 mg/kg/injection, schedule: Q01DX005 (ip), vehicle: Klucel (hydroxypropylcellulose) (HPC)) 100 % of control.
Take `CCOP(=S)(Oc1cnn(C)c(=O)c1OC)OC(C)C` (stereo not drawn): the T/C reads like this: (dose: 0.78 mg/kg/injection, schedule: Q01DX005 (ip), vehicle: saline with Tween-80) 98 % of control; (dose: 1.56 mg/kg/injection, schedule: Q01DX005 (ip), vehicle: saline with Tween-80) 100 % of control; (dose: 3.13 mg/kg/injection, schedule: Q01DX005 (ip), vehicle: saline with Tween-80) 98 % of control.
Turning to `C/C=C/C=C(/C=O)[C@@H](O)C(C)=O`, the T/C reads like this: (dose: 2.0 mg/kg/injection, schedule: Q01DX009 (ip), vehicle: saline + alcohol) 121 % of control and 93 % of control; (dose: 4.0 mg/kg/injection, schedule: Q01DX009 (ip), vehicle: saline + alcohol) 101 % of control; (dose: 8.0 mg/kg/injection, schedule: Q01DX009 (ip), vehicle: saline + alcohol) 101 % of control; (dose: 16.0 mg/kg/injection, schedule: Q01DX009 (ip), vehicle: saline + alcohol) 111 % of control.
Take `CC(=O)c1ccccc1NC(=O)COc1ccccc1OCC(=O)Nc1ccccc1C(C)=O`: the T/C under setting [5] was 100 % of control, the T/C under setting [6] was 92 % of control and the T/C under setting [7] was 96 % of control.
For `Cn1ncc2c(=O)[nH]cnc21`, the T/C is 93 % of control under setting [2]; 93 % of control under setting [3]; 96 % of control under setting [4]; 97 % of control (dose: 400.0 mg/kg/injection, schedule: Q01DX009 (ip), vehicle: Klucel (hydroxypropylcellulose) (HPC)).
For `COC(=O)C1Cc2cocc2CC(C(=O)OC)N1C(=O)OC(C)(C)C` (stereo not drawn), the T/C was 99 % of control (dose: 8.75 mg/kg/injection, schedule: Q01DX005 (ip), vehicle: Klucel (hydroxypropylcellulose) (HPC)); 101 % of control (dose: 17.5 mg/kg/injection, schedule: Q01DX005 (ip), vehicle: Klucel (hydroxypropylcellulose) (HPC)); 99 % of control (dose: 35.0 mg/kg/injection, schedule: Q01DX005 (ip), vehicle: Klucel (hydroxypropylcellulose) (HPC)).
For `N#CN(Cc1ccccc1)C(c1ccccc1)(c1ccccc1)c1ccccc1.[I][Sn]([c]1ccccc1)([c]1ccccc1)[c]1ccccc1`, the T/C (dose: 3.12 mg/kg/injection, schedule: Q01DX005 (ip), vehicle: saline with Tween-80) was 98 % of control and the T/C (dose: 6.25 mg/kg/injection, schedule: Q01DX005 (ip), vehicle: saline with Tween-80) was 92 % of control.
With `CC1(O)C2CCCCC2C2CCCCC2C1(C)O` (stereo not drawn), the T/C by setting is: under setting [5], 101 % of control; under setting [6], 100 % of control; under setting [7], 103 % of control.
Consider `CC1(CO)CSC(Nc2ccc(F)cc2)=N1` (stereo not drawn), for which the T/C is 104 % of control (dose: 50.0 mg/kg/injection, schedule: Q01DX009 (ip), vehicle: saline with Tween-80); 98 % of control (dose: 100.0 mg/kg/injection, schedule: Q01DX009 (ip), vehicle: saline with Tween-80); 104 % of control (dose: 200.0 mg/kg/injection, schedule: Q01DX009 (ip), vehicle: saline with Tween-80).
With `CSC(=C(C#N)C#N)N1CC1`, the T/C (dose: 12.5 mg/kg/injection, schedule: Q01DX001 (ip), vehicle: DMSO) is 103 % of control; the T/C (dose: 25.0 mg/kg/injection, schedule: Q01DX001 (ip), vehicle: DMSO) was 97 % of control; the T/C (dose: 50.0 mg/kg/injection, schedule: Q01DX001 (ip), vehicle: DMSO) is 96 % of control.
With `Cc1ccc2oc(-c3nnc(N)s3)cc(=O)c2c1`, the T/C is, setting by setting: under setting [5], 100 % of control; under setting [6], 100 % of control; under setting [7], 93 % of control.
As for `CN(C)P(=O)(N=S=NC(C)(C)C)N(C)C`, the T/C was 109 % of control (dose: 50.0 mg/kg/injection, schedule: Q01DX009 (ip), vehicle: saline) and 115 % of control under setting [1].
For `COc1cc(C(=O)NC(=S)Nc2csc(-c3ccc(F)cc3)n2)cc(OC)c1OC`, the T/C runs as follows: (dose: 50.0 mg/kg/injection, schedule: Q01DX005 (ip), vehicle: Klucel (hydroxypropylcellulose) (HPC)) 100 % of control; (dose: 100.0 mg/kg/injection, schedule: Q01DX005 (ip), vehicle: Klucel (hydroxypropylcellulose) (HPC)) 94 % of control; (dose: 200.0 mg/kg/injection, schedule: Q01DX005 (ip), vehicle: Klucel (hydroxypropylcellulose) (HPC)) 90 % of control.
As for `COC1C(C)OC(OC2CC(C)(O)C(C(=O)O)c3cc4c(c(O)c32)C(=O)c2c(O)cc3c(c2C4=O)OC2OC3(C)C(O)C(N(C)C)C2O)C(OC)C1(C)OC` (stereo not drawn), the T/C is 119 % of control (dose: 1.25 mg/kg/injection, schedule: Q04DX003 (ip), vehicle: other); 113 % of control (dose: 2.5 mg/kg/injection, schedule: Q04DX003 (ip), vehicle: other); 122 % of control (dose: 5.0 mg/kg/injection, schedule: Q04DX003 (ip), vehicle: other); 155 % of control (dose: 20.0 mg/kg/injection, schedule: Q04DX003 (ip), vehicle: other).
For `CCOC(=O)c1cc2c(OC)c(OC)ccc2c2[nH]cc(C#N)c(=O)c12`, the T/C is, setting by setting: (dose: 12.5 mg/kg/injection, schedule: Q01DX009 (ip), vehicle: distilled water + Tween-80) 100 % of control; (dose: 25.0 mg/kg/injection, schedule: Q01DX009 (ip), vehicle: distilled water + Tween-80) 94 % of control; (dose: 50.0 mg/kg/injection, schedule: Q01DX009 (ip), vehicle: distilled water + Tween-80) 93 % of control; (dose: 100.0 mg/kg/injection, schedule: Q01DX009 (ip), vehicle: distilled water + Tween-80) 90 % of control; (dose: 200.0 mg/kg/injection, schedule: Q01DX009 (ip), vehicle: distilled water + Tween-80) 86 % of control.
Regarding `C=C(C)C#CCN(CCO)C(C)C`, the T/C (dose: 60.0 mg/kg/injection, schedule: Q01DX005 (ip), vehicle: saline with Tween-80) is 102 % of control and the T/C (dose: 120.0 mg/kg/injection, schedule: Q01DX005 (ip), vehicle: saline with Tween-80) is 98 % of control.
